The values that follow come from paper PMC4747340, “A new class of small molecule estrogen receptor-alpha antagonists that overcome anti-estrogen resistance” (Oncotarget, 2015).

What is called viability is a read-out of living cells in per cent, often relative to untreated cells. Higher therefore signals better survival.

For one data set, the system named is LCC2 cells. Briefly: cell proliferation assay (cell counts days 1, 3, 5), LCC2. The format is cell-based, human. Particulars: DMEM + 5% charcoal-stripped serum. As to the method:
(§1) Starting on day 1, cells were refed daily with fresh medium (DMEM plus 5% CSS) containing the indicated agent. In panel F, the cells were refed with medium also containing ER-siRNA or control-siRNA (100 nM) at the indicated times. Wells were counted on days 1, 3, and 5 to determine cell numbers. Values are means ± SEMs of triplicate wells. The data shown in each panel are representative of three independent experiments.
(§2) Assays were performed using as the growth medium phenol red-free DMEM containing 5% charcoal-stripped serum. Briefly, proliferating cells were harvested using trypsin, counted, inoculated into 12-well dishes at 1 × 10^4 cells per well on day 0 and allowed to attach and recover for 24 hr. The cells were then treated with the indicated agents for up to five days, with daily refeeding with fresh medium and agents. Triplicate wells were counted by Coulter Counter on days 1, 3, and 5. For experiments using siRNAs, cells were treated with the indicated siRNA (100 nM) starting on day -2, and fresh siRNA was added on days 0, 2, and 4.

For the next data set, the system named is cathepsin D. In words: Western blotting of cathepsin D (E2/ER-regulated gene) in MCF-7 cells. The format is cell-based, human. Particulars: for E2-stimulated expression of cathepsin D: MCF-7, E2 10 nM, 24 hr; for cathepsin D levels, compound alone: MCF-7, no E2, 24 hr. The protocol: MCF-7 cells in DMEM plus 5% CSS were subjected to the indicated treatment(s) for 24-hr and then harvested for Western blotting to detect cathepsin D or actin (control for loading and transfer). B., D. LCC9 cells were treated with vehicle only (DMSO) or the indicated compound for 24-hr and then harvested for Western blotting for cathepsin D and actin. The data shown in each panel are representative of three independent experiments.
After the indicated cell treatment(s), the cells were harvested, and whole-cell lysates were prepared using RIPA buffer (Santa Cruz). Equal aliquots of whole-cell protein (either 100 μg unprecipitated whole-cell lysate or one half of the precipitated protein from 500-μg whole-cell lysate) were electrophoresed on 4-12% SDS-polyacrylamide gradient gels, transferred to nitrocellulose membranes (Millipore, Bedford, MA), and blotted using primary antibodies against BRCA1 (C-20, rabbit polyclonal, 1:200 dilution; Santa Cruz), cathepsin D (R-20, goat polyclonal, 1:300; Santa Cruz), ER (F10, mouse monoclonal, 1:500; Santa Cruz), or actin (goat polyclonal, sc-1615, 1:400; Santa Cruz). The membranes were blotted with the appropriate secondary antibodies (1:1000; Santa Cruz), and the blotted proteins were visualized using an […] detection system (Amersham Biosciences), with colored markers (Bio-Rad Laboratories, Hercules, CA) as molecular size standards.

The next data set concerns LCC9 cells. In words: cell proliferation assay (cell counts days 1, 3, 5), LCC9. Particulars: for LCC9 cell proliferation, compound combined with Tam: compound plus Tam (1 μM) compared with compound alone. Type of data set: cell-based, human. The protocol: as §1, §2
Data set [1] can be described thus: MTT assay of cell viability. Type of data set: cell-based. Particulars: human, MCF-7 cells, 24-hr exposure, relative to untreated control. The protocol: Figure 3 Cytotoxicity and specificity of compounds A., B. Subconfluent proliferating cells were incubated with the indicated compound at the indicated concentration for 24-hr and then harvested for MTT dye reduction assays. Cell viability values (relative to untreated control cells) are means ± SEMs of 10 replicate wells. C., D. Subconfuent proliferating T47D cells were transfected overnight with the MMTV-Luc reporter (0.25 μg per well in 24-well dishes), washed, and allowed to recover for several hr in fresh medium. The cells were then treated with a synthetic progestin (R5020, 10 nM) plus the indicated compound at the indicated concentration for 24 hr and then harvested for luciferase assays. Luciferase activity is expressed relative to the MMTV-Luc control (no agents added) (panel A) or as a percentage of the +R5020 positive control (panel B). Values are means ± SEMs of four replicate wells. The data shown in each panel are representative of three independent experiments.
Assays were performed as described before. After the indicated treatment, cells in 96-well dishes were solubilized and assayed for MTT dye reduction. Cell viability was expressed as the amount of dye reduction relative to untreated control cells. and calculated as means ± SEMs for 10 replicate wells.
For orientation: Tetrazolium assays rely on reduction of a dye to a coloured formazan, in cell work by metabolically active cells.

For `O=C(c1cc(Br)ccc1O)c1cc(Br)ccc1O` [4631-P/1], the “proliferation of Tamoxifen-resistant LCC2 cells” value in the data set on LCC2 cells is reported as “inhibited ER-dependent cell proliferation”. For the same compound, in the data set on cathepsin D, the “E2-stimulated expression of cathepsin D” value is listed as “blocked E2-stimulated expression of cathepsin D” and the “cathepsin D levels, compound alone” value is on record as “little or no effect”. The “effect on LCC9 cell growth, single agent” value with LCC9 cells (DMEM + 5% charcoal-stripped serum, up to 5 days, 4631-P/1 at 1 μM) is reported as “inhibited LCC9 cell growth”. The “LCC9 cell proliferation, compound combined with Tam” value with LCC9 cells is “greater inhibition of cell proliferation than 4631-P/1 alone”. Also, in data set [1], the viability at 24 h, 1 µM was 100% and the viability at 24 h, 20 µM was above 90%.

On to `O=C(CC(c1ccccc1)N1CCCCC1)c1ccccc1` (centres unmarked) [35446-L/1, 1,3-diphenyl-3-(piperidin-1-yl)propan-1-one], for which the “proliferation of Tamoxifen-resistant LCC2 cells” value in the data set with LCC2 cells is reported as “inhibited ER-dependent cell proliferation”. For the same compound, in the data set with cathepsin D, the “E2-stimulated expression of cathepsin D” value is given as “blocked E2-stimulated expression of cathepsin D” and the “cathepsin D levels, compound alone” value is “little or no effect”. In addition, the “LCC9 cell proliferation in ER-siRNA-treated cells” value with LCC9 cells (ER-siRNA 100 nM) is “little effect on cell proliferation”. Moreover, the “LCC9 cell proliferation, compound combined with Tam” value with LCC9 cells is listed as “greater inhibition of LCC9 proliferation than did 35466-L/1 alone”. In addition, in data set [1], the viability at 24 h, 1 µM came to 100% and the viability at 24 h, 20 µM is above 90%.
